# Results taken from US8192962B2, “Processes for detecting toxic substances” (Daikin Industries, Ltd., priority 2001, dated 2012).
# System: Transport facilitation protein genes
# Experiment: DNA chip mRNA expression in yeast, transport facilitation protein genes (Table 5)
# Assay type: cell-based, Saccharomyces cerevisiae S288C
# Summary of the method: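 Whole-genome yeast DNA chip hybridization (65° C., >12 h) of Cy-labeled cDNA from S288C cells exposed 2 h at 25° C. to a sub-lethal toxicant dose in YPD; value is intensity relative to chemical-free control.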
smiles,measurement,setting,value
"Oc1cc(Cl)c(Cl)cc1Cl [(6), 2,4,5-trichlorophenol]",The level of expressed mRNA in the presence of chemical substance/The level of expressed mRNA in the absence of chemical substance,yeast gene YGR281W,1.9
same,The level of expressed mRNA in the presence of chemical substance/The level of expressed mRNA in the absence of chemical substance,yeast gene YHL035C,4.1
same,The level of expressed mRNA in the presence of chemical substance/The level of expressed mRNA in the absence of chemical substance,yeast gene YHL040C,7.3
same,The level of expressed mRNA in the presence of chemical substance/The level of expressed mRNA in the absence of chemical substance,yeast gene YHL047C,8.4
same,The level of expressed mRNA in the presence of chemical substance/The level of expressed mRNA in the absence of chemical substance,yeast gene YHR026W,1.3
same,The level of expressed mRNA in the presence of chemical substance/The level of expressed mRNA in the absence of chemical substance,yeast gene YHR092C,1.7
same,The level of expressed mRNA in the presence of chemical substance/The level of expressed mRNA in the absence of chemical substance,yeast gene YHR094C,1.6
same,The level of expressed mRNA in the presence of chemical substance/The level of expressed mRNA in the absence of chemical substance,yeast gene YHR175W,1.0
same,The level of expressed mRNA in the presence of chemical substance/The level of expressed mRNA in the absence of chemical substance,yeast gene YIL006W,0.3
same,The level of expressed mRNA in the presence of chemical substance/The level of expressed mRNA in the absence of chemical substance,yeast gene YIL022W,1.2
same,The level of expressed mRNA in the presence of chemical substance/The level of expressed mRNA in the absence of chemical substance,yeast gene YIL056W,1.0
same,The level of expressed mRNA in the presence of chemical substance/The level of expressed mRNA in the absence of chemical substance,yeast gene YIL088C,2.2
same,The level of expressed mRNA in the presence of chemical substance/The level of expressed mRNA in the absence of chemical substance,yeast gene YJL034W,1.1
same,The level of expressed mRNA in the presence of chemical substance/The level of expressed mRNA in the absence of chemical substance,yeast gene YJL212C,1.1
same,The level of expressed mRNA in the presence of chemical substance/The level of expressed mRNA in the absence of chemical substance,yeast gene YJL219W,1.5
same,The level of expressed mRNA in the presence of chemical substance/The level of expressed mRNA in the absence of chemical substance,yeast gene YJR077C,0.9
same,The level of expressed mRNA in the presence of chemical substance/The level of expressed mRNA in the absence of chemical substance,yeast gene YJR106W,1.2
same,The level of expressed mRNA in the presence of chemical substance/The level of expressed mRNA in the absence of chemical substance,yeast gene YJR121W,1.5
same,The level of expressed mRNA in the presence of chemical substance/The level of expressed mRNA in the absence of chemical substance,yeast gene YKL016C,0.8
same,The level of expressed mRNA in the presence of chemical substance/The level of expressed mRNA in the absence of chemical substance,yeast gene YKL146W,1.3
same,The level of expressed mRNA in the presence of chemical substance/The level of expressed mRNA in the absence of chemical substance,yeast gene YKR039W,2.8
same,The level of expressed mRNA in the presence of chemical substance/The level of expressed mRNA in the absence of chemical substance,yeast gene YKR067W,1.8
same,The level of expressed mRNA in the presence of chemical substance/The level of expressed mRNA in the absence of chemical substance,yeast gene YLL028W,1.7
same,The level of expressed mRNA in the presence of chemical substance/The level of expressed mRNA in the absence of chemical substance,yeast gene YLL055W,1.4
same,The level of expressed mRNA in the presence of chemical substance/The level of expressed mRNA in the absence of chemical substance,yeast gene YLR081W,0.9
same,The level of expressed mRNA in the presence of chemical substance/The level of expressed mRNA in the absence of chemical substance,yeast gene YLR295C,1.1
same,The level of expressed mRNA in the presence of chemical substance/The level of expressed mRNA in the absence of chemical substance,yeast gene YLR348C,1.9
same,The level of expressed mRNA in the presence of chemical substance/The level of expressed mRNA in the absence of chemical substance,yeast gene YLR378C,1.2
same,The level of expressed mRNA in the presence of chemical substance/The level of expressed mRNA in the absence of chemical substance,yeast gene YMR011W,0.6
same,The level of expressed mRNA in the presence of chemical substance/The level of expressed mRNA in the absence of chemical substance,yeast gene YMR058W,2.6
same,The level of expressed mRNA in the presence of chemical substance/The level of expressed mRNA in the absence of chemical substance,yeast gene YMR162C,1.0
same,The level of expressed mRNA in the presence of chemical substance/The level of expressed mRNA in the absence of chemical substance,yeast gene YMR203W,1.1
same,The level of expressed mRNA in the presence of chemical substance/The level of expressed mRNA in the absence of chemical substance,yeast gene YNL055C,2.6
same,The level of expressed mRNA in the presence of chemical substance/The level of expressed mRNA in the absence of chemical substance,yeast gene YNL259C,3.9
same,The level of expressed mRNA in the presence of chemical substance/The level of expressed mRNA in the absence of chemical substance,yeast gene YNR072W,0.9
same,The level of expressed mRNA in the presence of chemical substance/The level of expressed mRNA in the absence of chemical substance,yeast gene YOL119C,0.9
same,The level of expressed mRNA in the presence of chemical substance/The level of expressed mRNA in the absence of chemical substance,yeast gene YOL156W,1.2
same,The level of expressed mRNA in the presence of chemical substance/The level of expressed mRNA in the absence of chemical substance,yeast gene YOL163W,0.5
same,The level of expressed mRNA in the presence of chemical substance/The level of expressed mRNA in the absence of chemical substance,yeast gene YOR035C,1.9
same,The level of expressed mRNA in the presence of chemical substance/The level of expressed mRNA in the absence of chemical substance,yeast gene YOR130C,1.6
same,The level of expressed mRNA in the presence of chemical substance/The level of expressed mRNA in the absence of chemical substance,yeast gene YOR153W,7.4
same,The level of expressed mRNA in the presence of chemical substance/The level of expressed mRNA in the absence of chemical substance,yeast gene YOR270C,1.8
same,The level of expressed mRNA in the presence of chemical substance/The level of expressed mRNA in the absence of chemical substance,yeast gene YOR273C,0.4
same,The level of expressed mRNA in the presence of chemical substance/The level of expressed mRNA in the absence of chemical substance,yeast gene YOR316C,0.9
same,The level of expressed mRNA in the presence of chemical substance/The level of expressed mRNA in the absence of chemical substance,yeast gene YOR328W,2.9
same,The level of expressed mRNA in the presence of chemical substance/The level of expressed mRNA in the absence of chemical substance,yeast gene YOR332W,1.8
same,The level of expressed mRNA in the presence of chemical substance/The level of expressed mRNA in the absence of chemical substance,yeast gene YOR348C,0.7
same,The level of expressed mRNA in the presence of chemical substance/The level of expressed mRNA in the absence of chemical substance,yeast gene YPL036W,0.7
same,The level of expressed mRNA in the presence of chemical substance/The level of expressed mRNA in the absence of chemical substance,yeast gene YPL134C,1.2
same,The level of expressed mRNA in the presence of chemical substance/The level of expressed mRNA in the absence of chemical substance,yeast gene YPL265W,2.3
same,The level of expressed mRNA in the presence of chemical substance/The level of expressed mRNA in the absence of chemical substance,yeast gene YPL271W,3.3
same,The level of expressed mRNA in the presence of chemical substance/The level of expressed mRNA in the absence of chemical substance,yeast gene YPR124W,2.0
same,The level of expressed mRNA in the presence of chemical substance/The level of expressed mRNA in the absence of chemical substance,yeast gene YPR192W,0.9
same,The level of expressed mRNA in the presence of chemical substance/The level of expressed mRNA in the absence of chemical substance,yeast gene YPR194C,1.5
